The source of these data is patent publication US8017612B2, “Piperazine compound and use thereof as a HCV polymerase inhibitor” (priority 2006, dated 2011).

Structures are written as SMILES. A value given as a limit tells only on which side of the number the result lay.

In experiment [1] the target is T1, HCV polymerase (NS5B) type 1a (Hepatitis C virus genotype 1a, UniProt P26664).
T1 construct: made in house; host or cells: Escherichia coli (by the 'similar method' of the 1b enzyme)
Nature of the experiment: Assay of enzyme (HCV polymerase) inhibitory activity, type 1a enzyme. In kind it is biochemical, HCV type 1a (cloned from the blood of patients). Summed up: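 NS5B Δ47 C-term His6 (type 1a, 1.5 μg/ml); substrate RNA 5 μg/ml; ATP/GTP/CTP 50 μM, UTP 2 μM + [5,6-3H]UTP; Tris pH 7.5, MgCl2 5 mM; 25° C, 60 min. TCA/pyrophosphate stop, GF/B filter, scintillation. IC50 vs no-compound control.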

Experiment [2] deals with T2, HCV polymerase (NS5B) type 1b (Hepatitis C virus genotype 1b, UniProt P26663).
T2 construct: a region encoding NS5B (J Virol 1991 March, 65(3), 1105-13, 544 amino acids after deletion of 47 amino acids on the C-terminal); 6xHis (C); made in house; host or cells: Escherichia coli
Nature of the experiment: Assay of enzyme (HCV polymerase) inhibitory activity, type 1b enzyme. The class given is biochemical, HCV BK strain (type 1b). Summed up:
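Rxn: NS5B 1b (BK, ΔC47, His6) 0.5 μg/ml; substrate RNA 5 μg/ml; ATP/GTP/CTP 50 μM, UTP 2 μM + [5,6-3H]UTP; 20 mM Tris pH 7.5, 5 mM MgCl2, 50 mM NaCl, 1 mM EDTA/DTT. 25 °C, 60 min. Stop with TCA/pyrophosphate, filter, scintillation count; IC50 vs. untreated.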

Where [3] appears, read: HCV polymerase inhibitory activity IC50, 1a, type 1a enzyme.
The mark [4] stands for this setting: HCV polymerase inhibitory activity IC50, 1b, type 1b enzyme.
Where [5] appears, read: HCV polymerase inhibitory activity (IC50), 1a, type 1a enzyme 1.5 μg/ml, 25° C., 60 min.
Where [6] appears, read: HCV polymerase inhibitory activity (IC50), 1b, type 1b enzyme 0.5 μg/ml, 25° C., 60 min.

As for `O=C(NCc1ccc(OC(F)(F)F)cc1)[C@H]1CN(c2nc3cn[nH]c(=O)c3s2)CCN1S(=O)(=O)c1ccc(F)cc1` [Example 864, (R)-1-(4-fluoro-benzenesulfonyl)-4-(7-oxo-6,7-dihydro-thiazolo[4,5-d]pyridazin-2-yl)-piperazine-2-carboxylic acid 4-trifluoromethoxy-benzylamide], the IC50 was 0.1 to 1 µM in experiment [1] (setting [3]) and less than 0.1 µM in experiment [2] (setting [4]).

For the molecule `CCC(F)(F)c1ccc(CNC(=O)[C@H]2CN(C(=O)Nc3nnc(C(F)(F)F)s3)CCN2S(=O)(=O)c2ccc(OC(F)(F)F)cc2)cc1` [Example 489, (R)-4-(4-trifluoromethoxy-benzenesulfonyl)-piperazine-1,3-dicarboxylic acid 3-[4-(1,1-difluoro-propyl)-benzylamide] 1-[(5-trifluoromethyl-[1,3,4]thiadiazol-2-yl)-amide]], the IC50 in experiment [1] (setting [5]) and in experiment [2] (setting [6]) was greater than 1 µM each time.

Take `CN(C)c1ccc(CNC(=O)C2CN(C(=O)CCN3CCOCC3)CCN2S(=O)(=O)c2ccc(I)cc2)cc1` (stereo not shown) [Example 113, 1-(4-iodo-benzenesulfonyl)-4-(3-morpholin-4-yl-propionyl)-piperazine-2-carboxylic acid 4-dimethylamino-benzylamide]: the IC50 in experiment [1] (setting [5]) and in experiment [2] (setting [6]) was greater than 1 µM each time.

Regarding `CON(C)C(=O)c1ncc2sc(N3CCN(S(=O)(=O)c4ccc(OC(F)(F)F)cc4)[C@@H](C(=O)NCc4ccc(OC(F)(F)F)cc4)C3)nc2n1` [Example 1054, 2-[(R)-4-(4-trifluoromethoxy-benzenesulfonyl)-3-(4-trifluoromethoxy-benzylcarbamoyl)-piperazin-1-yl]-thiazolo[4,5-d]pyrimidine-5-carboxylic acid methoxy-methyl-amide], the IC50 in experiment [1] (setting [3]) and in experiment [2] (setting [4]) was less than 0.1 µM each time.

On to `CCc1ccc(CNC(=O)[C@H]2CN(C(C)=O)CCN2S(=O)(=O)c2ccc(C(C)C)cc2)c(C)c1` [Example 321, (R)-4-acetyl-1-(4-isopropyl-benzenesulfonyl)-piperazine-2-carboxylic acid 4-ethyl-2-methyl-benzylamide], for which the IC50 in experiment [1] (setting [5]) and in experiment [2] (setting [6]) was less than 0.1 µM each time.

Turning to `CC(=O)N1CCN(S(=O)(=O)c2ccc(C(C)C)cc2)[C@H](C(=O)NCc2ccc(C(F)(F)F)cc2)C1` [Example 19, (S)-4-acetyl-1-(4-isopropyl-benzenesulfonyl)-piperazine-2-carboxylic acid 4-trifluoromethyl-benzylamide], the IC50 in experiment [1] (setting [5]) and in experiment [2] (setting [6]) was greater than 1 µM in each case.

As to `COc1ccc(S(=O)(=O)N2CCN(C(C)=O)C[C@@H]2C(=O)NCc2ccc(C(C)C)cc2)cc1C(C)C` [Example 215, (R)-4-acetyl-1-(3-isopropyl-4-methoxy-benzenesulfonyl)-piperazine-2-carboxylic acid 4-isopropyl-benzylamide], the IC50 in experiment [1] (setting [5]) was 0.1 to 1 µM; in experiment [2] (setting [6]), less than 0.1 µM.

Consider `CC(C)c1ccc(CNC(=O)[C@H]2CN(C(=O)CNC(=O)CCC(=O)O)CCN2S(=O)(=O)c2ccc(C(F)(F)F)cc2)cc1` [Example 274, N-{2-[(R)-3-(4-isopropyl-benzylcarbamoyl)-4-(4-trifluoromethyl-benzenesulfonyl)-piperazin-1-yl]-2-oxo-ethyl}-succinamic acid], for which the IC50 in experiment [1] (setting [5]) is greater than 1 µM; in experiment [2] (setting [6]), 0.1 to 1 µM.

As for `CC(=O)N1CCN(S(=O)(=O)c2ccc(C(C)C)cc2)C(C(=O)NCc2ccccc2C(F)(F)F)C1` (stereo not shown) [Example 120, 4-acetyl-1-(4-isopropyl-benzenesulfonyl)-piperazine-2-carboxylic acid 2-trifluoromethyl-benzylamide], the IC50 in experiment [1] (setting [5]) and in experiment [2] (setting [6]) was greater than 1 µM each time.

Consider `O=C(NCc1ccc(OC(F)(F)F)cc1)[C@H]1CN(c2nc3ccc(=O)[nH]c3s2)CCN1S(=O)(=O)c1ccc(C(F)(F)F)cc1` [Example 1086, (R)-4-(5-oxo-4,5-dihydro-thiazolo[5,4-b]pyridin-2-yl)-1-(4-trifluoromethyl-benzenesulfonyl)-piperazine-2-carboxylic acid 4-trifluoromethoxy-benzylamide], for which the IC50 in experiment [1] (setting [3]) and in experiment [2] (setting [4]) was less than 0.1 µM throughout.

`CCC(CC)c1ccc(CNC(=O)C2CN(C(C)=O)CCN2S(=O)(=O)c2ccc(C(C)C)cc2)cc1` (stereo not shown) [Example 163, 4-acetyl-1-(4-isopropyl-benzenesulfonyl)-piperazine-2-carboxylic acid 4-(1-ethyl-propyl)-benzylamide]: the IC50 in experiment [1] (setting [5]) and in experiment [2] (setting [6]) was 0.1 to 1 µM in each case.

Consider `CCOC(=O)C(=O)N1CCN(S(=O)(=O)c2ccc(C(F)(F)F)cc2)[C@@H](C(=O)NCc2ccc(C(C)C)cc2)C1` [Example 290, [(R)-3-(4-isopropyl-benzylcarbamoyl)-4-(4-trifluoromethyl-benzenesulfonyl)-piperazin-1-yl]-oxo-acetic acid ethyl ester], for which the results for the IC50 in experiment [1] (setting [5]) and in experiment [2] (setting [6]) were greater than 1 µM and 0.1 to 1 µM, respectively.

Take `CC(=O)N1CCN(S(=O)(=O)c2ccc([N+](=O)[O-])cc2)C(C(=O)NCc2ccc(C(F)(F)F)cc2)C1` (stereo not shown) [Example 40, 4-acetyl-1-(4-nitro-benzenesulfonyl)-piperazine-2-carboxylic acid 4-trifluoromethyl-benzylamide]: the IC50 in experiment [1] (setting [5]) and in experiment [2] (setting [6]) was greater than 1 µM throughout.

Regarding `CN(C)C(=O)c1ncc2sc(N3CCN(S(=O)(=O)c4ccc(OC(F)(F)F)cc4)[C@@H](C(=O)NCc4ccc(OC(F)(F)F)cc4)C3)nc2n1` [Example 1041, 2-[(R)-4-(4-trifluoromethoxy-benzenesulfonyl)-3-(4-trifluoromethoxy-benzylcarbamoyl)-piperazin-1-yl]-thiazolo[4,5-d]pyrimidine-5-carboxylic acid dimethylamide], the half-maximal inhibitory concentration (IC50) in experiment [1] (setting [3]) and in experiment [2] (setting [4]) was less than 0.1 µM throughout.

Turning to `CCC(F)(F)c1ccc(CNC(=O)[C@H]2CN(C(=O)Nc3ccn(C)n3)CCN2S(=O)(=O)c2ccc(OC(F)(F)F)cc2)cc1` [Example 569, (R)-4-(4-trifluoromethoxy-benzenesulfonyl)-piperazine-1,3-dicarboxylic acid 3-[4-(1,1-difluoro-propyl)-benzylamide] 1-[(1-methyl-1H-pyrazol-3-yl)-amide]], the IC50 in experiment [1] (setting [5]) is 0.1 to 1 µM; in experiment [2] (setting [6]), less than 0.1 µM.

Turning to `CCCc1ccc(CNC(=O)[C@H]2CN(c3cnc(C(=O)O)cn3)CCN2S(=O)(=O)c2ccc(CC)s2)cc1` [Example 522, (R)-4-(5-ethyl-thiophene-2-sulfonyl)-3-(4-propyl-benzylcarbamoyl)-3,4,5,6-tetrahydro-2H-[1,2′]bipyrazinyl-5′-carboxylic acid], the IC50 in experiment [1] (setting [5]) and in experiment [2] (setting [6]) was less than 0.1 µM in each case.

Turning to `O=C(NCc1ccc(OC(F)(F)F)cc1)[C@H]1CN(c2nc3nc(C(F)(F)F)ncc3s2)CCN1S(=O)(=O)c1ccc(OC(F)F)cc1` [Example 999, (R)-1-(4-difluoromethoxy-benzenesulfonyl)-4-(5-trifluoromethyl-thiazolo[4,5-d]pyrimidin-2-yl)-piperazine-2-carboxylic acid 4-trifluoromethoxy-benzylamide], the IC50 in experiment [1] (setting [3]) and in experiment [2] (setting [4]) was less than 0.1 µM throughout.

A word on the IC50: it is the concentration at which inhibition is half-maximal. A higher IC50 goes with a need for much substance.
